Each block holds one compound with its values, some of them ahead of it. Where a SMILES comes first, the peptide text is derived from it.
Columns and labels:
[1] = in vitro antioxidant activity detection with the [DPPH.] method (radical removing rate); format: biochemical
Description: (1) Preparing 1 mmol/L [DPPH.] Methanol Solution:
Weighting […] [DPPH.] with the analytical balance and dissolving in 1 ml methanol solution for obtaining 1 mmol/L [DPPF.] methanol solution, storing with tinfoil for avoiding light, wherein the [DPPF.] methanol solution is prepared before use.
(2) Standard Curve Detection of [DPPH.] Methanol Solution:
Adding 100 μL [DPPH.] methanol standard curve sample into the 96-hole cell culturing plate according to a Table 2, waiting for 90 min at a room temperature, detecting absorbance values at 517 nm with the microplate reader.
Accordingly, curves are fitted and a regression equation is calculated with Excel, and results thereof are shown in FIG. 8 (the regression equation: y=−0.192x+0.2271, R^2=0.9991). […] From the results, absorbance values and [DPPF.] contents have an inverse relationship, i.e. the less the [DPPH.] content is, the […] the absorbance value will be, which means a stronger radical removing ability.
(3) Antioxidant Activity Detection of the Bioactive Polypeptide DELQ with [DPPH.] Method […]
2) blank group: adding 80 μL 1 mmol/L [DPPF.] methanol solution and 20 μL deionized water into the same 96-hole cell culturing plate for forming a blank group.
After adding the test sample, waiting at the room temperature for 90 min, detecting the absorbance values at 517 nm with the microplate reader, and calculating a radical removing ratio according to a following formula, wherein results thereof are shown in Table 3.

[2] = simulated in vitro gastrointestinal digestion (pepsin, then pancreatin), UPLC-Q-TOF-MS analysis; format: in vitro ADME; conditions: 500 μg/mL; pepsin pH 2.0 37° C. 90 min, then pancreatin pH 7.5 37° C. 150 min
Description: The experiment is divided into two steps. Firstly, preparing a 500 μg/mL DELQ solution, adding pepsin with a ratio of 20 mg the pepsin for every gram of the DELQ, adjusting a pH value of the reaction solution to 2.0, reacting with a temperature kept in a 37° C. thermostatic waterbath for 90 min; then adjusting a pH value to 7.5, and adding pancreatin with a ratio of 40 mg the pancreatin for every gram of the DELQ, and reacting with a temperature kept in a 37° C. thermostatic waterbath for 150 min; inactivating disgestive enzymes with a 95° C. waterbath for 5 min; and freeze-drying the reaction solution for obtaining dry powder thereof, and storing at −20° C. for further use.
Picking 0.2 mg powder sample after stimulated in vitro gastrointestinal digestion, adding 50 μL water and 450 μL pure ethanol, thorough shocking before putting into a −20° C. freezer for 20 min, centrifuging at 15000 rpm for 30 min, collecting 400 μL supernatant for UPLC-Q-TOF-MS analysis. […]
According to the above experiment conditions, the bioactive polypeptides DELQ before and after treatment with digestive enzymes are analyzed by UPLC-Q-TOF-MS, a total ion stream obtained is shown in FIG. 11. […]

[3] = total antioxidant capacity detection with the FRAP (Ferric Reducing Ability Power) method; format: biochemical; conditions: sample concentration 4.00 mg/mL
Description: (1) Preparing FRAP Working Fluid:
According to the FRAP detection reagent kit, thorough mixing 7.5 mL TPTZ diluent, 750 μL TPTZ solution, and 750 μL detection buffer, incubating in a 37° C. water bath, and using in 2 h.
(2) Drawing a FeSO4 Standard Curve:
Adding 180 μL FRAP working fluid into the 96-hole cell culturing plate, then adding 5 μL FeSO4 standard curve solution according to Table 4, gently mixing, incubating at 37° C. for 3-5 min, and detecting absorbance values at 593 nm with the microplate reader.
FeSO4 concentration and the absorbance value have a good proportional relationship, i.e. the higher the FeSO4 concentration is, the higher absorbance value will be. According to the present invention, FeSO4 standard curve results are shown in FIG. 10, the standard curve has a good linear relationship, wherein a correlation coefficient thereof is 0.998. Precision and accuracy of the FeSO4 curve satisfy testing requirements, and are applicable for subsequent calculation.
(3) Bioactive Polypeptide DELQ Antioxidant Capacity Detection with FRAP Method
Adding 180 μL FRAP working fluid into the 96-hole cell culturing plate, adding 5 μL ddH2O into a blank control hole, adding 5 μL testing sample into a sample hole, adding 5 μL phytic acid into a positive control, gently mixing, incubating at 37° C. for 3-5 min, and detecting absorbance values at 593 nm with the microplate reader. […]

Structure (SMILES): Cc1c(C)c2c(c(C)c1O)CCC(C)(C(=O)O)O2 (stereo not drawn) [Trolox]
[DPPH.] radical removing rate ([1]; positive control 1, 2.5 mg/mL Trolox): 99.96%
[DPPH.] radical removing rate ([1]; positive control 2, 0.025 g/mL Trolox): 71.08 ± 0.03%

stability under simulated in vitro gastrointestinal digestion [2]: stable
Structure (SMILES): CC(C)C[C@H](NC(=O)[C@H](CCC(=O)O)NC(=O)[C@@H](N)CC(=O)O)C(=O)N[C@@H](CCC(N)=O)C(=O)O [DELQ, Asp-Glu-Leu-Gln] (H-DELQ-OH; N-terminus and C-terminus assumed)

Structure (SMILES): O=P(O)(O)O[C@H]1[C@H](OP(=O)(O)O)[C@@H](OP(=O)(O)O)[C@H](OP(=O)(O)O)[C@@H](OP(=O)(O)O)[C@H]1OP(=O)(O)O [phytic acid]
[DPPH.] radical removing rate ([1]; negative control, concentration not given): 58.49 ± 0.08%
FRAP [3]: 0.0089 mmol/g
corresponding FeSO4 concentration ([3]; 593 nm): 0.0356 ± 0.0055 mmol/L

— patent US20160200762A1, “Bioactive polypeptide DELQ and preparation method as well as application thereof” (SHANGHAI JIAOTONG UNIVERSITY, priority 2012, published 2016)
